Measurements: patent publication US20250084371A1, “CELL MONOLAYER BLOCKING AGENTS AND USES THEREOF” (LUMICKS CA HOLDING B.V., priority 2021, published 2025)

Tests used:
Raji cells [1] = test: Avidity of UNT or FMC63-CAR Jurkat cells to Raji seeded PLL-coated chips after blocking; assay type: cell-based; conditions: for percentage of effector cells bound to the target cells at the end of the force ramp (1000 pN) / difference in the positive/negative window: PLL; for percentage of effector cells bound to the target cells at the end of the force ramp (1000 pN): mean n=2; for difference in the positive/negative window: CAR minus UNT bound at 1000 pN, Raji; for binding of the CAR sample (cells bound) after blocking: FMC63 CAR Jurkat, from about 80% without blocking; for binding of the CAR sample (cells bound) after blocking / background binding of the UNT sample (cells bound) after blocking: Raji-seeded PLL chips; for background binding of the UNT sample (cells bound) after blocking: UNT Jurkat, from about 50% without blocking
Experimental: (§1) z-Movi® chips (obtained and as available from LUMICKS (<https://lumicks.com/products/z-movi-cell-interaction-studies/>) were coated with Poly-L-Lysine (#P4707-50ML, Sigma) diluted 1:5 in PBS for 10 minutes at room temperature, or with human Fibronectin (#F0895, Sigma) at 0.1 mg/mL overnight at room temperature. The following day the target cells were seeded in serum free RPMI medium, incubated 1 h, and subsequently the medium replaced with complete RPMI medium. The chips were incubated for an additional hour before the blocking reaction. The effector cells were stained with CellTrace™ Far Red dye (Thermo Fisher Scientific) at 1 μM for 15 minutes in PBS at 37° C., then resuspended at 10 million/mL in complete medium and used for the avidity experiments. The stained effector cells (i.e. cells of interest) were introduced in the target cell-seeded flow cell, incubated for 5 minutes, and then a 1 to 1000 pN force ramp was applied throughout 2.5 minutes using z-Movi® operated with the Oceon V1.2 software. At the end of the avidity measurements, the monolayer was stained with a Trypan Blue solution to qualitatively assess the target cell viability. The avidity experiment analysis was performed using Oceon V1.2.
(§2) The MS(PEG)4 or BS(PEG)5 (Thermo Fisher Scientific) (see FIG. 2) were dissolved in anhydrous DMSO (Merck) then diluted in PBS to obtain a final concentration of 5 mM or as otherwise indicated. The target cell-seeded chips (or coated only with PLL or fibronectin) were rinsed with PBS before introducing the blocking solution (or a PBS solution with DMSO as control sample). The chips were incubated for 15 minutes at room temperature and the reaction was stopped with TBS (50 mM Tris pH7.4, 150 mM NaCl). The chips were subsequently equilibrated with complete medium and used for avidity measurements. Furthermore, blocking was also tested with incubations of 1 hour with serum free RPMI medium, 20% fetal bovine serum (FBS), 50% FBS, 50% human serum (HS), 10% bovine serum albumin (BSA), NALM6 condition medium.
We next validated the use of NHS-based blockers to reduce background binding of the effector cells in the presence of the monolayer. We used as cells of interest a Jurkat cell line transduced to express the FMC63 Chimeric Antigen Receptor (CAR) or untransduced (UNT) as control cells. As target cells we used the Raji cell line, endogenously expressing the CD19 antigen, seeded on PLL coated chips.

Hela-CD19 cells [2] = test: Avidity of UNT or FMC63-CAR Jurkat to Hela-CD19 seeded PLL-coated chips after blocking; assay type: cell-based; conditions: Hela-CD19 on PLL, blocker 5 mM; for percentage of effector cells bound to the target cells at the end of the force ramp (1000 pN): mean n=2
Experimental: as §1
as §2, with “medium. […]” for “medium.”

Raji cells [3] = test: Monolayer integrity/viability (Trypan Blue) of Raji seeded PLL-coated chips after blocking; assay type: cell-based; conditions: Raji on PLL, vs DMSO vehicle
Experimental: as §1, with “V1.2. […]” for “V1.2.”

Hela-CD19 cells [4] = test: Avidity of UNT or FMC63-CAR Jurkat to Hela-CD19 seeded fibronectin-coated chips after blocking; assay type: cell-based; conditions: Hela-CD19 on human fibronectin, blocker 5 mM; for percentage of effector cells bound to the target cells at the end of the force ramp (1000 pN): mean n=2
Experimental: as §1
as §2, with “medium. […]” for “medium.”

Raji cells [5] = test: Avidity of UNT or FMC63-CAR primary T cells to Raji seeded PLL-coated chips after blocking; assay type: cell-based
Experimental: Untransduced or FMC63-transduced primary CAR T cells were obtained from ProMab Biotechnologies Inc. (Anti-CD19-TF-CD28-CD3z (PMC-152)) propagated with CD3/CD28 dynabeads (Thermo Fisher Scientific) and 90 IU/mL of IL-2 (Miltenyi Biotec), or Untransduced or FMC63 CAR transduced Jurkat were used (Creative Biolabs).
as §1, §2
We then performed the experiments with the blocking agents with primary T cells expressing a FMC63 CAR (or not) layered on Raji cells. We observed that the observations made with Jurkat cells were recapitulated showing a considerable improvement of the negative/positive window on the chips subjected to the blocking reaction (FIG. 7).

CD69 activation marker = test: CD69 activation assay, Jurkat co-incubated with blocked Raji cells; assay type: cell-based; conditions: 1:1, 4 h
Experimental: Target cells were treated with DMSO or blocking agent using the protocol above, resuspended at 1 million/mL in RPMI complete medium and mixed at 1:1 ratio with the indicated effector cells. For the IFNγ release assay the samples were incubated for 7 h in the incubator before spinning down and use of the supernatant to perform the ELISA (Biolegend, ELISA MAX™ Deluxe Set Human IFNγ). […]

PLL-coated chips = test: Binding of Jurkat cells to PLL-coated chips after blocking (z-Movi avidity, no target cells); assay type: cell-based
Experimental: as §1, with “V1.2. […]” for “V1.2.”

[6] = system: human fibronectin-coated chips; test: Binding of Jurkat cells to human fibronectin-coated chips after blocking (z-Movi avidity, no target cells); assay type: cell-based
Experimental: as §1, with “V1.2. […]” for “V1.2.”

IFNγ = IFNγ release assay (ELISA), primary T cells co-incubated with blocked Raji cells; assay type: cell-based, human; conditions: 1:1, 7 h
Experimental: Target cells were treated with DMSO or blocking agent using the protocol above, resuspended at 1 million/mL in RPMI complete medium and mixed at 1:1 ratio with the indicated effector cells. For the IFNγ release assay the samples were incubated for 7 h in the incubator before spinning down and use of the supernatant to perform the ELISA (Biolegend, ELISA MAX™ Deluxe Set Human IFNγ). For the CD69 assay, the target and effector cells prepared as described above were co-incubated for 5 h in the incubator before being stained using anti-CD3 and anti-CD69 antibodies (clone SK7 and FN50, Biolegend).

Raji cells [7] = test: Avidity of UNT or FMC63-CAR primary T cells to Raji covalent monolayer on PLL-coated chips; assay type: cell-based; conditions: 10 mM crosslinker, mean n=2
Experimental: Untransduced or FMC63-transduced primary CAR T cells were obtained from ProMab Biotechnologies Inc. (Anti-CD19-TF-CD28-CD3z (PMC-152)) propagated with […] CD3/CD28 dynabeads (Thermo Fisher Scientific) and 90 IU/mL of IL-2 (Miltenyi Biotec). Raji cells were used as target cells. Primary CAR-T cells were cultured in RPMI+Glutamax supplemented with 50 μM β-Mercaptoethanol, 5% heat inactivated human serum, and Penicillin-Streptomycin.
z-Movi® chips (obtained and as available from LUMICKS) were coated with Poly-L-Lysine (#P4707-50ML, Sigma) diluted 1:5 in PBS for 10 minutes at room temperature. The following day the target cells were seeded in PBS, incubated 0.75 h, and subsequently the monolayers were left untreated or reacted with BS(PEG)9. For negative control the PLL coated chips were reacted with 5 mM MS(PEG)4 before seeding the Raji cells. The effector cells were stained with CellTrace™ Far Red dye (Thermo Fisher […] Scientific) at 1 μM for 15 minutes in PBS at 37° C., then resuspended at 10 million/mL in complete medium and used for the avidity experiments. The stained effector cells (i.e. cells of interest) were introduced in the target cell-seeded flow cell, incubated for 5 minutes, and then a 1 to 1000 pN force ramp was applied throughout 2.5 minutes using z-Movi® operated with the Oceon® V1.2 software. […]

[8] = CAR Jurkat + Raji treated with 5 mM blocker 15 minutes
[9] = UNT Jurkat + Raji treated with 5 mM blocker 15 minutes

COCCOCCOCCOCCC(=O)ON1C(=O)CCC1=O [MS(PEG)4]
percentage of effector cells bound to the target cells at the end of the force ramp (1000 pN) (Raji cells [1]; CAR (FMC63-transduced) effector cells + Raji, blocker 5 mM): 84.7%
difference in the positive/negative window (Raji cells [1]; blocker 5 mM): 51.9%
binding of the CAR sample (cells bound) after blocking (Raji cells [1]): about 70%
percentage of effector cells bound to the target cells at the end of the force ramp (1000 pN) (Raji cells [1]; UNT (untransduced) effector cells + Raji, blocker 5 mM): 32.8%
background binding of the UNT sample (cells bound) after blocking (Raji cells [1]): about 20%
percentage of effector cells bound to the target cells at the end of the force ramp (1000 pN) (Hela-CD19 cells [2]; CAR Jurkat): 68%
pos/neg window after the blocking reaction (Hela-CD19 cells [2]; control window 49.4%): 63%
percentage of effector cells bound to the target cells at the end of the force ramp (1000 pN) (Hela-CD19 cells [2]; UNT Jurkat): 5%
monolayer integrity (confluency, cell morphology, staining) (Raji cells [3]; blocker 5 mM): No differences in target cell monolayer confluency, cell morphology or staining could be detected
percentage of effector cells bound to the target cells at the end of the force ramp (1000 pN) (Hela-CD19 cells [4]; CAR Jurkat): 70.1%
pos/neg window after the blocking reaction (Hela-CD19 cells [4]; control window 33.3%): 53.3%
percentage of effector cells bound to the target cells at the end of the force ramp (1000 pN) (Hela-CD19 cells [4]; UNT Jurkat): 16.8%
percentage of effector cells bound to the target cells at the end of the force ramp (1000 pN) (Raji cells [5]; CAR primary T cells + Raji, mean n=3 (FIG. 7B)): 67.8%
percentage of effector cells bound to the target cells at the end of the force ramp (1000 pN) (Raji cells [5]; UNT primary T cells + Raji, mean n=3 (FIG. 7B)): 42.6%
percentage of CD69 positive cells (CD69 activation marker; [8]): 27%
percentage of CD69 positive cells (CD69 activation marker; [9]): 0.8%

O=C(CCOCCOCCOCCOCCOCCC(=O)ON1C(=O)CCC1=O)ON1C(=O)CCC1=O [BS(PEG)5]
percentage of Jurkat cells bound at the end (1000 pN) of the avidity measurement (PLL-coated chips; blocking agent 1 mM): 92.9%
percentage of Jurkat cells bound at the end (1000 pN) of the avidity measurement (PLL-coated chips; blocking agent 5 mM): 1.2%
percentage of effector cells bound to the target cells at the end of the force ramp (1000 pN) (Raji cells [1]; CAR (FMC63-transduced) effector cells + Raji, blocker 4.5 mM): 78.3%
difference in the positive/negative window (Raji cells [1]; blocker 4.5 mM): 62.7%
binding of the CAR sample (cells bound) after blocking (Raji cells [1]): about 70%
percentage of effector cells bound to the target cells at the end of the force ramp (1000 pN) (Raji cells [1]; UNT (untransduced) effector cells + Raji, blocker 4.5 mM): 15.6%
background binding of the UNT sample (cells bound) after blocking (Raji cells [1]): about 20%
monolayer integrity (confluency, cell morphology, staining) (Raji cells [3]; blocker 4.5 mM): No differences in target cell monolayer confluency, cell morphology or staining could be detected
percentage of effector cells bound to the target cells at the end of the force ramp (1000 pN) (Raji cells [5]; CAR primary T cells + Raji, blocker 4.5 mM, mean n=2 (FIG. 7A)): 66.3%
percentage of effector cells bound to the target cells at the end of the force ramp (1000 pN) (Raji cells [5]; UNT primary T cells + Raji, blocker 4.5 mM, mean n=2 (FIG. 7A)): 39.9%
percentage of CD69 positive cells (CD69 activation marker; [8]): 30%
percentage of CD69 positive cells (CD69 activation marker; [9]): 0.6%
percentage of bound Jurkat cells at the end of the force ramp (1000 pN) ([6]; blocking agent 1 mM): 52.8%
percentage of bound Jurkat cells at the end of the force ramp (1000 pN) ([6]; blocking agent 5 mM): 43.2%
amount of IFNγ in co-culture supernatants (IFNγ; CAR primary T cells + Raji treated with 4.5 mM blocker 15 minutes): 1633 pg/mL
amount of IFNγ in co-culture supernatants (IFNγ; UNT primary T cells + Raji treated with 4.5 mM blocker 15 minutes): 11 pg/mL

O=C(CCOCCOCCOCCOCCOCCOCCOCCOCCOCCC(=O)ON1C(=O)CCC1=O)ON1C(=O)CCC1=O [BS(PEG)9]
percentage of effector cells bound to the target cells at the end of the force ramp (1000 pN) (Raji cells [7]; CAR primary T cells + Raji): 61.4%
percentage of effector cells bound to the target cells at the end of the force ramp (1000 pN) (Raji cells [7]; UNT primary T cells + Raji): 10.3%
